Data on one substance can be found in patent publication US20120309821A1, “Use of epigallocatechin-3-gallate for immune regulation” (NATIONAL DEFENSE MEDICAL CENTER, priority 2011, published 2012).

Common to all, as to type: in vivo, mouse
For assay [1], the system named is NAD(P)H oxidase subunit p47phox. As to the kind of experiment: Western blot of cytosolic p47phox in kidney. The conditions noted are these: 120 mg/kg by gavage daily, week 34, increase seen in disease control. How it is done: Female NZB/W F1 mice were purchased from the Animal Center of the National Taiwan University (Taipei, Taiwan, ROC) and, at 12 weeks of age, were divided into two groups, one of which was given normal saline and served as the disease control, while the other was given 120 mg/kg body weight of EGCG (Ryss Lab, Inc., CA, USA) (this dose is a slight modification of those used in previous in vivo studies) by gavage daily till sacrificed at 34-weeks-old. 8-Week-old NZB/W F1 female mice (prior to onset of autoantibody production) were used as normal controls. Urine samples were collected in metabolic cages every 2 weeks and urine protein levels were measured, and serum samples were used to measure serum levels of blood urea nitrogen (BUN) and creatinine (Cr) as described previously (Ka, S. M. et al. Decoy receptor 3 ameliorates an autoimmune crescentic glomerulonephritis model in mice. J Am Soc Nephrol 18:2473-2485; 2007). All animal experiments were performed upon the ethical approval of the Institutional Animal Care and Use Committee of the National Defense Medical Center, Taiwan and according to the ethical rules in the NIH Guide for the Care and Use of Laboratory Animals. […] Antibodies to histone H3 (Cell Signaling) or β-actin (Santa Cruz) were used as internal controls for the nuclear and cytosolic target proteins, respectively.
(A western blot detects proteins with antibodies after separation by electrophoresis.)

For assay [2], the system named is NZB/W F1 lupus-prone mice. As to the kind of experiment: Urine protein time course in NZB/W F1 lupus-prone mice. To be noted: 120 mg/kg EGCG by gavage daily from 12 weeks of age; weeks 28-34; vs disease control mice. How it is done: (§1) Female NZB/W F1 mice were purchased from the Animal Center of the National Taiwan University (Taipei, Taiwan, ROC) and, at 12 weeks of age, were divided into two groups, one of which was given normal saline and served as the disease control, while the other was given 120 mg/kg body weight of EGCG (Ryss Lab, Inc., CA, USA) (this dose is a slight modification of those used in previous in vivo studies) by gavage daily till sacrificed at 34-weeks-old. 8-Week-old NZB/W F1 female mice (prior to onset of autoantibody production) were used as normal controls. Urine samples were collected in metabolic cages every 2 weeks and urine protein levels were measured, and serum samples were used to measure serum levels of blood urea nitrogen (BUN) and creatinine (Cr) as described previously (Ka, S. M. et al. Decoy receptor 3 ameliorates an autoimmune crescentic glomerulonephritis model in mice. J Am Soc Nephrol 18:2473-2485; 2007). All animal experiments were performed upon the ethical approval of the Institutional Animal Care and Use Committee of the National Defense Medical Center, Taiwan and according to the ethical rules in the NIH Guide for the Care and Use of Laboratory Animals.

The test system of assay [3] is NZB/W F1 lupus-prone mice. As to the kind of experiment: Kidney histopathological evaluation (H&E). To be noted: 120 mg/kg by gavage daily; week 34; H&E kidney sections; vs disease control mice. How it is done: as §1, with “Animals. Formalin-fixed and paraffin-embedded renal sections were prepared for pathologic evaluation.” for “Animals.”
The test system of the next assay is IL-1β. Description: Serum IL-1β ELISA. The conditions noted are these: 120 mg/kg by gavage daily; week 34; vs disease control mice. How it is done:
as §1, with “Animals. Serum levels of IL-1β and IL-18 were measured using commercial ELISA kits (BD Biosciences) according to the manufacturer's instructions.” for “Animals.”
For orientation: An ELISA detects its analyte on a solid surface through an enzyme-linked reagent.

In a further assay the test system is anti-dsDNA antibodies. Description: Serum anti-dsDNA antibody ELISA. To be noted: 120 mg/kg by gavage daily; week 34; increase over normal control. How it is done: as §1, with “[…] Serum levels of anti-dsDNA antibodies” for “All animal experiments”, “measured using an anti-mouse dsDNA enzyme-linked immunosorbent assay (ELISA) kit (Alpha Diagnostic, TX, USA)” for “performed upon the ethical approval of the Institutional Animal Care and Use Committee of the National Defense Medical Center, Taiwan and”, “manufacturer's instructions. The absorbance at 450 nm was measured using an ELISA plate reader (Bio-Tek, VT, USA).” for “ethical rules in the NIH Guide for the Care and Use of Laboratory Animals.”

Regarding Epigallocatechin-3-gallate [EGCG], the “levels of NAD(P)H oxidase subunit p47phox” value in assay [1] is reported as “abolished”. Further, the urine protein levels result in assay [2] is listed as “markedly inhibited”. For the same substance, in assay [3], the “severe renal lesions (glomerular proliferation, crescents, interstitial inflammation, fibrosis)” value is given as “greatly reduced”. In the assay with IL-1β, the “serum levels of IL-1β” value is “significantly lower”. For the same substance, the “serum anti-dsDNA antibody levels” value in the assay with anti-dsDNA antibodies is recorded as “not inhibited”.
